Test results as given in US20040029889A1, “Heteroaryl alkyl piperazine derivatives as fatty acid oxidation inhibitors” (priority 2000, published 2004).

Experiments:
[1] = tested on: mitochondrial fatty acid oxidation using palmitoyl CoA as substrate; assay: Palmitoyl CoA oxidation in isolated rat heart mitochondria; type: biochemical; conditions: 1-C14 palmitoyl CoA substrate, 15 min at 30° C., vs DMSO control; for Inhibition of mitochondrial fatty acid oxidation, % of Control, 100 μm (%): 100 μm compound; for Inhibition of mitochondrial fatty acid oxidation, % of Control, 50 μm (%): 50 μm compound
Experimental: Rat heart mitochondria were isolated by the method of Nedergard and Cannon (Methods in Enzymol. 55, 3, 1979).
Palmitoyl CoA oxidation—The Palmityl CoA oxidation was carried out in a total volume of 100 micro liters containing the following agents: 110 mM KCl, 33 mM Tris buffer at pH 8, 2 mM KPi, 2 MM MgCl2, 0.1 MM EDTA, 14.7 microM defatted BSA, 0.5 mM malic acid, 13 mM carnitine, 1 mM ADP, 52 micrograms of mitochondrial protein, and 16 microM 1-C14 palmitoyl CoA (Sp. Activity 60 mCi/mmole; 20 microCi/ml, using 5 microliters per assay). The compounds of this invention were added in a DMSO solution at the following concentrations: 100 microM, and 50 microM. In each assay, a DMSO control was used. After 15 min at 30° C., the enzymatic reaction was centrifuged (20,000 g for 1 min), and 70 microliters of the supernatant was added to an activated reverse phase silicic acid column (approximately 0.5 ml of silicic acid). The column was eluted with 2 ml of water, and 0.5 ml of the eluent was used for scintillation counting to determine the amount of C^14 trapped as C^14 bicarbonate ion.

[2] = Metabolic stability in human liver S-9 fractions; type: in vitro ADME; conditions: % parent remaining after 30 min at 37 C divided by average % ranolazine remaining (57%), >1.2 better, 0.8-1.2 equivalent, <0.8 less stable than ranolazine
Experimental: Metabolic Stability: As a measure of metabolic stability the compounds of this invention were incubated with human liver S-9 microsomal fractions. After, 30 minutes at 37 C, the amount of parent drug remaining was determined using LC-mass spec. The response factors for each compound was determined by establishing a standard curve and using an internal standard during the analysis of the samples. An average of five experiments for percentage of ranolazine remaining at the 30 minute time point is 57%. The compounds of this invention were assayed as described in the protocol below and the percentage of parent remaining was divided by the average % of ranolazine remaining (57%) affording a metabolic stability factor. A compound with a stability number greater than 1.2 has a better stability than ranolazine in the liver S-9 assay. A compound with a stability number between 1.2 and 0.8 has an equivalent stability in the liver S-9 assay.
The purpose of this experiment is to compare the percentages remaining for compounds of this invention with the percentage remaining for ranolazine after 30 minutes of incubation with human liver S9 fractions.
The following reagents were used; Potassium phosphate, 0.5M pH 7.4 (incubation buffer), kept at room temperature; 0.05M MgCl2 kept at 4° C.; β-Nicotinamide adenine dinucleotide phosphate, tetrasodium salt, reduced form (NADPH), 0.02M solution in water (˜16.6 mg/mL) from Sigma Lot # 79H7044 prepared on day of use. 1 mM of ranolazine or Compounds 43, 45, 47, 52, 70, 74, 76, 78, and 80 in ACN further diluted to obtain 100 μM in 10% ACN; Human S9 stock: 20 mg/mL from Gentest.
Incubation mixtures were prepared as follows:
Combine all components with incubation buffer and re-pipette 200 μL/tube+25 μL of the compound being tested along with 25 μL of S-9.
After 5 min of pre-incubation at 37° C., at 0 and 30 min after starting the reaction, a 50 μl aliquot of the incubation mixture was removed and added to 100 μL of 9:1 acetonitrile: methanol containing the internal standard.
The mixture was centrifuged and a 100 μL aliquot of the supernatant was diluted in 1 mL of solvent C (0.1% Formic Acid in water). Then samples were analyzed for change between the ratio of compound to internal standard at time zero and 30 minutes by LC/MS (injected 10 μL).
Samples were analyzed for the starting compounds and potential metabolite/s by LC/MS using an internal standard and an ODS-C18 column with a flow rate of 0.25 ml/min.

SMILES | Inhibition of mitochondrial fatty acid oxidation, % of Control, 100 μm (%) [1] [%] | Liver S9 Stability Factor [2] | Inhibition of mitochondrial fatty acid oxidation, % of Control, 50 μm (%) [1] [%]
Cc1nc2cc(OCC(O)CN3CCN(CC(=O)Nc4c(C)cccc4C)C(=O)C3)ccc2s1 (centres unmarked) [Compound 64, N-(2,6-dimethylphenyl)-2-{4-[2-hydroxy-3-(2-methyl-benzothiazol-5-yloxy)-propyl]-2-oxo-piperazin-1-yl}acetamide] | 41 | – | –
Cc1cccc(C)c1NC(=O)CN1CCN(CC(O)COc2nc3ccccc3s2)CC1 (centres unmarked) [Compound 43, 2-{4-[3-(benzothiazol-2-yloxy)-2-hydroxy-propyl]-piperazin-1-yl}-N-(2,6-dimethylphenyl)acetamide] | 21 | 0.6 | –
Cc1ccc2ccc(OCC(O)CN3CCN(CC(=O)Nc4c(C)cccc4C)CC3)cc2n1 (centres unmarked) [Compound 80, N-(2,6-dimethylphenyl)-2-{4-[2-hydroxy-3-(2-methyl-quinolin-7-yloxy)-propyl]-piperazin-1-yl}acetamide] | 22 | 0.5 | –
Cc1nc2cc(OCC(O)CN3CCN(CC(=O)Nc4c(C)cccc4C)CC3)ccc2s1 (centres unmarked) [Compound 45] | 87 | 0.8 | –
Cc1cccc(C)c1NC(=O)CN1CCN(CC(O)COc2ccc3oc(-c4ccccc4)nc3c2)CC1 (centres unmarked) [Compound 60, N-(2,6-dimethylphenyl)-2-{4-[2-hydroxy-3-(2-phenyl-benzoxazol-5-yloxy)-propyl)-piperazin-1-yl}acetamide] | – | – | 61
Cc1cccc(C)c1NC(=O)CN1CCN(CC(O)CNc2nc3ccccc3s2)CC1 (centres unmarked) [Compound 39, 2-{4-[3-(benzothiazol-2-ylamino)-2-hydroxypropyl]piperazinyl}-N-(2,6-dimethylphenyl)acetamide] | 27 | – | –
Cc1cccc(C)c1NC(=O)CN1CCN(CC(O)COc2cccc3nc(-c4ccccc4)sc23)CC1 (centres unmarked) [Compound 62] | – | – | 62
Cc1cccc(C)c1NC(=O)CN1CCN(CC(O)COc2cccnc2)CC1 (centres unmarked) [Compound 72, N-(2,6-dimethylphenyl)-2-{4-[2-hydroxy-3-(pyridin-3-yloxy)-propyl]-piperazin-1-yl}acetamide] | 8 | – | –
Cc1nc2cc(OCC(O)CN3CCN(CC(=O)Nc4ccc(O)cc4)CC3)ccc2s1 (centres unmarked) [Compound 54, 2-{14-[2-hydroxy-3-(2-methyl-benzothiazol-5-yloxy)-propyl]-piperazin-1-yl}-N-(4-hydroxy-phenyl)acetamide] | 81 | – | –
Cc1nc2cc(OCC(O)CN3C(C)CN(CC(=O)Nc4c(C)cccc4C)CC3C)ccc2s1 (centres unmarked) [Compound 52, N-(2,6-dimethylphenyl)-2-{4-[2-hydroxy-3-(2-methyl-benzothiazol-5-yloxy)-propyl]-3,5-dimethyl-piperazine-1-yl}acetamide] | 95 | 0.5 | –
Cc1cccc(C)c1NC(=O)CN1CCN(CC(O)COc2ccc3oc(-c4cccc(C(F)(F)F)c4)nc3c2)CC1 (centres unmarked) [Compound 7, N-(2,6-dimethyl-phenyl)-2-(4-{2-hydroxy-3-[2-(3-trifluoromethylphenyl)benzoxazol-5-yloxy]-propyl}-piperazin-1-yl)acetamide] | – | – | 77
Cc1cccc(C)c1NC(=O)CN1CCN(CC(O)COc2cccc3[nH]c(C(N)=O)cc23)CC1 (centres unmarked) [Compound 46] | 61 | 1.1 | –
Cc1nc2ccc(OCC(O)CN3CCN(CC(=O)Nc4c(C)cccc4C)CC3)cc2s1 (centres unmarked) [Compound 49, N-(2,6-dimethylphenyl)-2-{4-[2-hydroxy-3-(2-methyl-benzothiazol-6-yloxy)-propyl]-piperazin-1-yl}aceamide] | 3 | – | –
Cc1cccc(C)c1NC(=O)CN1CCN(CC(O)COc2ccc3ncccc3c2)CC1 (centres unmarked) [Compound 78] | 42 | 0.6 | –
Cc1cccc(C)c1NC(=O)CN1CCN(CC(O)COc2ccnc3ccccc23)CC1 (centres unmarked) [Compound 74, N-(2,6-dimethylphenyl)-2-{4-[2-hydroxy-3-(quinolin-4-yloxy)-propyl]-piperazin-1-yl}acetamide] | 12 | 1.0 | –
Cc1cccc(C)c1NC(=O)CN1CCN(CC(O)COc2ccc3ncsc3c2)CC1 (centres unmarked) [Compound 47, 2-{4-[3-(benzothiazol-6-yloxy)2-hydroxy-propyl]-piperazin-1-yl}-N-(2,6-dimethylphenyl)-acetamide] | 70 | 1.5 | –
Cc1cccc(C)c1NC(=O)CN1CCN(CC(O)CNc2nc3ccccc3o2)CC1 (centres unmarked) [Compound 82, 2-{4-[3-(benzoxazol-2-ylamino)-2-hydroxypropyl]piperazinyl}-N-(2,6-dimethylphenyl)acetamide] | 22 | – | –
Cc1cccc(C)c1NC(=O)CN1CCN(CC(O)COc2cnc3ccccc3n2)CC1 (centres unmarked) [Compound 70, N-(2,6-dimethylphenyl)-2-{4-[2-hydroxy-3-(quinoxalin-2-yloxy)-propyl]-piperazin-1-yl}acetamide] | – | 0.1 | –
Cc1cccc(C)c1NC(=O)CN1CCN(CC(O)COc2ccc3oc(-c4ccc(C(F)(F)F)cc4)nc3c2)CC1 (centres unmarked) [Compound 68, N-(2,6-dimethylphenyl)-2-(4-{2-hydroxy-3-[2-(4-trifluoromethyl-phenyl)-benzoxazol-5-yloxy]-propyl}-piperazin-1-yl)acetamide] | – | – | 68
Cc1cccc(C)c1NC(=O)CN1CCN(CC(O)COc2cccc3cnccc23)CC1 (centres unmarked) [Compound 76, N-(2,6-dimethylphenyl)-2-{4-[2-hydroxy-3-(isoquinolin-5-yloxy)-propyl]-piperazin-1-yl}acetamide] | 26 | 0.8 | –
